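Dose response: 5 concentrations. Exposure: 48 h. Format: 96-well plates. Endpoint: linear interpolation; highest concentration if not reached. GI50 = concentration required for 50% inhibition of growth.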 Active and inactive are the calls of the source. Rule as the data show it: active = GI50 up to about 1.1 µM and inactive = higher.
Assays:
Experiment in all cases: growth of human tumour cells (NCI), 48 h
Malme-3M = tested on: Malme-3M
SNB-75 = tested on: SNB-75
UACC-62 = tested on: UACC-62
SR = tested on: SR
T47D = tested on: T47D
HCC 2998 = tested on: HCC 2998
A498 = tested on: A498
MDA-MB-231 = tested on: MDA-MB-231
OVCAR-8 = tested on: OVCAR-8
MDA-N = tested on: MDA-N
LOX IMVI = tested on: LOX IMVI
U-251 = tested on: U-251
SN12C = tested on: SN12C
MOLT-4 = tested on: MOLT-4
IGROV-1 = tested on: IGROV-1
OVCAR-5 = tested on: OVCAR-5
NCI-H460 = tested on: NCI-H460
UACC-257 = tested on: UACC-257
SF-268 = tested on: SF-268
OVCAR-3 = tested on: OVCAR-3

Row | SMILES | GI50 (Malme-3M) | GI50 (SNB-75) | GI50 (UACC-62) | GI50 (SR) | GI50 (T47D) | GI50 (HCC 2998) | GI50 (A498) | GI50 (MDA-MB-231) | GI50 (OVCAR-8) | GI50 (MDA-N) | GI50 (LOX IMVI) | GI50 (U-251) | GI50 (SN12C) | GI50 (MOLT-4) | GI50 (IGROV-1) | GI50 (OVCAR-5) | GI50 (NCI-H460) | GI50 (UACC-257) | GI50 (SF-268) | GI50 (OVCAR-3)
1 | N#CC12CC=C(c3ccccc3)N=C1NC(c1ccccc1)=CC2 (stereo not given) | > 100 µM (inactive) | 49 µM (inactive) | 86.7 µM (inactive) | 29.9 µM (inactive) | 34.7 µM (inactive) | > 100 µM (inactive) | 23.2 µM (inactive) | > 100 µM (inactive) | 48.2 µM (inactive) | 37.3 µM (inactive) | 30.8 µM (inactive) | 85.1 µM (inactive) | > 100 µM (inactive) | 21.8 µM (inactive) | > 100 µM (inactive) | > 100 µM (inactive) | 57.5 µM (inactive) | 48.6 µM (inactive) | > 100 µM (inactive) | > 100 µM (inactive)
2 | Brc1ccc2[nH]cc(-c3csc(-c4c[nH]c5ccc(Br)cc45)n3)c2c1 | 1.56 µM (inactive) | 2.39 µM (inactive) | 1.85 µM (inactive) | 1.63 µM (inactive) | 2.44 µM (inactive) | 1.86 µM (inactive) | 2.13 µM (inactive) | 1.66 µM (inactive) | 2.45 µM (inactive) | 2.25 µM (inactive) | 1.69 µM (inactive) | 1.82 µM (inactive) | 2.83 µM (inactive) | 1.63 µM (inactive) | 1.58 µM (inactive) | 1.97 µM (inactive) | 1.73 µM (inactive) | 2.92 µM (inactive) | 2.05 µM (inactive) | 2.45 µM (inactive)
3 | COc1cc(C/N=c2/nc(N(C)C)ss2)cc(OC)c1OC | > 5.15 µM (inactive) | > 10 µM (inactive) | > 10 µM (inactive) | 0.358 µM (active) | > 10 µM (inactive) | > 10 µM (inactive) | > 10 µM (inactive) | > 10 µM (inactive) | > 4.99 µM (inactive) | > 10 µM (inactive) | 2.1 µM (inactive) | > 10 µM (inactive) | > 10 µM (inactive) | 2.81 µM (inactive) | > 10 µM (inactive) | 3.37 µM (inactive) | > 10 µM (inactive) | > 10 µM (inactive) | > 10 µM (inactive) | > 10 µM (inactive)
4 | C=CCSC1=N/C(=C\c2ccccc2)C(=O)N1CC=C | 47 µM (inactive) | 33.3 µM (inactive) | 33.3 µM (inactive) | 22.7 µM (inactive) | 29.2 µM (inactive) | 28.9 µM (inactive) | 23.1 µM (inactive) | 39.9 µM (inactive) | 32.7 µM (inactive) | 30.3 µM (inactive) | 26.4 µM (inactive) | 37.7 µM (inactive) | 36.2 µM (inactive) | 2.7 µM (inactive) | > 100 µM (inactive) | > 100 µM (inactive) | 41.6 µM (inactive) | 33.2 µM (inactive) | 6.85 µM (inactive) | > 47.2 µM (inactive)
5 | CCc1n[nH]c(=O)n1N1C(=O)C2CC=CCC2C1=O (stereo not given) | > 100 µM (inactive) | 39.1 µM (inactive) | > 100 µM (inactive) | > 100 µM (inactive) | > 100 µM (inactive) | > 100 µM (inactive) | > 100 µM (inactive) | > 100 µM (inactive) | > 100 µM (inactive) | > 100 µM (inactive) | > 100 µM (inactive) | > 100 µM (inactive) | > 100 µM (inactive) | > 100 µM (inactive) | > 100 µM (inactive) | > 100 µM (inactive) | > 100 µM (inactive) | > 100 µM (inactive) | > 100 µM (inactive) | > 100 µM (inactive)
6 | Nc1ccc2c3[nH]c4cc(N)ccc4cc-3nc2c1 | 2.66 µM (inactive) | 0.12 µM (active) | 0.194 µM (active) | 0.0535 µM (active) | 0.284 µM (active) | 0.09 µM (active) | 0.138 µM (active) | 0.455 µM (active) | 0.151 µM (active) | 0.194 µM (active) | 0.199 µM (active) | 0.156 µM (active) | 0.138 µM (active) | 0.0789 µM (active) | 2.16 µM (inactive) | 0.291 µM (active) | 0.0775 µM (active) | 0.172 µM (active) | 0.232 µM (active) | 0.349 µM (active)
7 | O=C1NC(c2ccccc2Cl)Nc2ccccc21 (stereo not given) | 12.3 µM (inactive) | 13.8 µM (inactive) | 7.14 µM (inactive) | 4.07 µM (inactive) | 48.5 µM (inactive) | 11.3 µM (inactive) | 30.8 µM (inactive) | 33.2 µM (inactive) | 38.6 µM (inactive) | 1.47 µM (inactive) | 12.5 µM (inactive) | 10.4 µM (inactive) | 23.3 µM (inactive) | 8.77 µM (inactive) | 22.5 µM (inactive) | > 100 µM (inactive) | 13.9 µM (inactive) | > 100 µM (inactive) | 59.7 µM (inactive) | 7.38 µM (inactive)
8 | COc1cccc2cc(C(=O)Nc3ccccn3)c(=N)oc12 | 50.9 µM (inactive) | 59.2 µM (inactive) | 64.4 µM (inactive) | 2.43 µM (inactive) | 33 µM (inactive) | > 100 µM (inactive) | > 100 µM (inactive) | 63 µM (inactive) | > 100 µM (inactive) | 82.2 µM (inactive) | > 100 µM (inactive) | > 100 µM (inactive) | > 100 µM (inactive) | 0.501 µM (active) | > 100 µM (inactive) | > 100 µM (inactive) | > 100 µM (inactive) | > 100 µM (inactive) | 64.1 µM (inactive) | 23.7 µM (inactive)
9 | CC1=C(C)C(=O)OC(C(C)(O)C2(O)CCC3(O)C4CC(Cl)C5(O)C(O)C=CC(=O)C5(C)C4CCC32C)C1 (stereo not given) | > 100 µM (inactive) | 4.25 µM (inactive) | 9.1 µM (inactive) | 8.51 µM (inactive) | > 100 µM (inactive) | 27.1 µM (inactive) | 52.6 µM (inactive) | 30.2 µM (inactive) | 25.1 µM (inactive) | 20 µM (inactive) | 14.9 µM (inactive) | 37.5 µM (inactive) | 61 µM (inactive) | 10.1 µM (inactive) | 49.3 µM (inactive) | > 100 µM (inactive) | 36.1 µM (inactive) | 37.2 µM (inactive) | 48.1 µM (inactive) | 52.8 µM (inactive)
10 | COc1ccc(OC(=O)N2C/C(=C\c3ccccc3)C(=O)/C(=C/c3ccccc3)C2)cc1 | 11.1 µM (inactive) | 7.83 µM (inactive) | 2.16 µM (inactive) | 0.222 µM (active) | 16 µM (inactive) | 2.9 µM (inactive) | 2.33 µM (inactive) | 3.21 µM (inactive) | 2.47 µM (inactive) | 1.76 µM (inactive) | 0.962 µM (active) | 2.48 µM (inactive) | 2.43 µM (inactive) | 1.49 µM (inactive) | 5.6 µM (inactive) | 7.64 µM (inactive) | 5.42 µM (inactive) | 3.74 µM (inactive) | 3.67 µM (inactive) | 6.85 µM (inactive)
11 | COc1cc(C(=O)NC(CCN)(c2ccccc2)c2ccccc2)cc(OC)c1OC | 13.5 µM (inactive) | 17 µM (inactive) | > 31.6 µM (inactive) | 15.6 µM (inactive) | 23.4 µM (inactive) | 13.4 µM (inactive) | 12.6 µM (inactive) | 16.9 µM (inactive) | > 31.6 µM (inactive) | 19.2 µM (inactive) | 16.7 µM (inactive) | 53.2 µM (inactive) | 21.7 µM (inactive) | 10.8 µM (inactive) | 25.1 µM (inactive) | > 87.5 µM (inactive) | 19.2 µM (inactive) | 16.8 µM (inactive) | 29.1 µM (inactive) | 56.8 µM (inactive)
12 | CN1CCN(c2c(Cl)cc(Cl)c3[nH]c4ccccc4c(=O)c23)CC1 | 1.96 µM (inactive) | 9.91 µM (inactive) | 4.68 µM (inactive) | 0.301 µM (active) | 9.23 µM (inactive) | 5.66 µM (inactive) | 3.96 µM (inactive) | 10.3 µM (inactive) | 5.07 µM (inactive) | 8.41 µM (inactive) | 3.64 µM (inactive) | 5.82 µM (inactive) | 6.12 µM (inactive) | 1.18 µM (inactive) | 4.46 µM (inactive) | 10.2 µM (inactive) | 11.2 µM (inactive) | 8.45 µM (inactive) | 2.86 µM (inactive) | 10.2 µM (inactive)
13 | O=c1c2cc(Cl)ccc2n2nnc3ccc(NCCNCCO)c1c32 | 2.09 µM (inactive) | 0.0753 µM (active) | 2.31 µM (inactive) | 0.641 µM (active) | 5.15 µM (inactive) | 1.37 µM (inactive) | 1.44 µM (inactive) | 1.47 µM (inactive) | 0.614 µM (active) | 1.1 µM (active) | 0.583 µM (active) | 0.853 µM (active) | 0.731 µM (active) | 0.394 µM (active) | 2.11 µM (inactive) | 1.64 µM (inactive) | 0.378 µM (active) | 1.78 µM (inactive) | 2.74 µM (inactive) | 1.59 µM (inactive)
